# In patent US9802912B2, “Cyclic ortho ester fuel additive” (AIRBUS OPERATIONS LIMITED, priority 2013, dated 2017):
# Legend:
# [1] = 1H NMR kinetics of acid catalysed hydrolysis of TMOA in AcOH/AcONa buffers; type: physicochemical
# Description: Five buffers with constant acetic acid (AcOH) concentration and different H^+ concentrations were made by varying the amount of sodium acetate (AcONa) added (see Table 1). As the ionic concentration of the solution has an impact on the rate constant of hydrolysis, sodium chloride was added to keep the ionic strength constant in all 5 buffers.
# The reaction samples were prepared directly in 5 mm NMR tube by adding 15 μL of TMOA in 500 μL of acetone-d6. To start the reaction 100 μL of acetic acid/sodium acetate aqueous buffer was added. All chemicals were purchased at the highest level of purity from Sigma Aldrich. Acetone-D6 and TMOA were dried before each experiment by distilling from 3 Å molecular sieve under nitrogen. Sodium chloride and sodium acetate were dried by heating them at T=100° C. for 4 hours under vacuum.
# A 300 MHz NMR spectrometer was used to follow the concentration of TMOA with time by acquiring nine sequential ^1H NMR spectra every 10 min (actual delay time=10.38 min). Presaturation solvent suppression technique was used to obscure the H2O signal. An external reference was used by adding to the NMR tube a sealed capillary tube with 3-(trimethylsilyl)-1-propanesulfonic acid sodium salt dissolved in D2O (concentration=0.1966 M).
# The TMOA ^1H NMR spectrum consists of two singlets resonating at 3.15 and 1.33 ppm, assigned to the —OCH3 and —CH3 residues, respectively (integrating 3:1—FIG. 7). The relative peak area (RPA—proportional to concentration) was measured by comparing the —CH3 resonance with that of the external reference.
# The approach adopted for determining kH+ and kHA, was to exploit the constancy of Ka (=1.75×10^−5 mol/L) whilst varying the numerators (i.e., [A^−] 2→0.1 and pH 5.07→3.74) and maintaining [HA] constant (i.e., 0.192 mol/L). As the overall rate of reaction (equation III) is a summation of both processes described by kH+ and kHA, the rate constant kobs is therefore proportional to the concentration of both associated and dissociated acids (equation IV). rate=kobs[R—C(OR)3] (III) kobs=kH+[H^+]+kHA[HA] (IV)
# Given that [HA] is constant, expression IV becomes equivalent to that of a straight line and kH+ and kHA may be determined by plotting kobs vs [H^+]. To obtain kobs however, the rate equation integrated over time (Eq. V) must be used. In[R—C(OR)3]t—In[R—C(OR)3]0=−kobst (V)
# ^1H NMR spectroscopy is the technique of choice when studying processes which occur on this timescale. Our choice of HA was acetic acid (AcOH), and five buffered solutions with different H^+ concentration were prepared by varying the amount of sodium acetate (AcONa=A^−). For the study, we switched focus from the aldehyde derivative TEOF (5, Scheme 1) used for the proof of concept study to the faster reacting keto-derivative trimethyl orthoacetate (TMOA) 8, Scheme 2 where R=—CH3) for reasons of atom economy (20% lighter).
# [H^+] may be plotted (FIG. 5) and a straight line fitted (y=35.464×+1.6×10^−3; R^2=0.993) from which values for the gradient of the slope and y-intercept afford kH+=35.5 min^−1 and, kHA=7.8×10^−3 min^−1 respectively. It is clear that the pathway catalysed by dissociated acid H^+ (specific acid catalysis—scheme 2) is approximately 4500 times faster than the pathway catalysed by undissociated AcOH, within the pH range studied here (3.7→5.0).
# [2] = GC measurement of hydrolysis of triethyl orthoformate by water in Jet A-1; type: physicochemical
# Description: The analyses were performed using an Agilent 5890 gas chromatograph equipped with a flame ionisation detector. The GC column used was of fused silica, HP-5MS, 30 m by 0.25 mm, with a helium flow rate of 1.5 mL/min. The temperature for the detector and injector was fixed at 250° C. The oven temperature used for the analysis was 80° C. for 4 minutes, then it was increased at 20° C./min to 240° C. and held for 2 minutes.
# Jet A-1, obtained by Air BP (Batch number BIS/HAL/12/035K), was dried by storing it over 3 Å molecular sieve for at least 24 hours. Standards with different water concentrations were prepared by adding measured volumes of distilled water by SGE μL syringes to 20 ml of anhydrous Jet A-1, taking extra care to inject the water in the middle of the solvent. Each standard was prepared just before use and ultrasonicated for 5 minutes to ensure an equal distribution of water.
# A reactant solution was prepared to enable a simple, one-step addition of all the necessary chemicals. […]
# For each water standard, the relative peak area (RPA) of ethanol was calculated by dividing the ethanol peak area by the internal standard peak area. […]
"reaction with water, completion ([2]; Jet A-1, methane sulfonic acid, 30 minutes)","reaction with water, complete ([2]; Jet A-1, no added acid catalyst, after 2 days)",SMILES,"Kobs ([1]; [AcOH]/[AcONa] 0.486, [H+] 8.51 × 10^−6 mol/L)","Kobs ([1]; [AcOH]/[AcONa] 1, [H+] 1.75 × 10^−5 mol/L)","Kobs ([1]; [AcOH]/[AcONa] 2.918, [H+] 5.11 × 10^−5 mol/L)","Kobs ([1]; [AcOH]/[AcONa] 4, [H+] 7.00 × 10^−5 mol/L)","Kobs ([1]; [AcOH]/[AcONa] 10.378, [H+] 1.82 × 10^−4 mol/L)","kHA (general acid catalysis, undissociated AcOH) ([1]; from y-intercept of kobs v. [H+], [HA] 0.192 mol/L)","kH+ (specific acid catalysis) ([1]; gradient of kobs v. [H+], pH 3.7-5.0)",rate of pathway catalysed by H+ relative to pathway catalysed by undissociated AcOH ([1]; pH 3.7-5.0)
,,"COC(C)(OC)OC [TMOA, trimethyl orthoacetate]",0.0016 min⁻¹,0.0024 min⁻¹,0.0036 min⁻¹,0.0042 min⁻¹,0.008 min⁻¹,0.0078 min⁻¹,35.5 min⁻¹,approximately 4500 times
100%,60-75%,"CCOC(OCC)OCC [compound 5, triethyl orthoformate]",,,,,,,,
